Laboratory results as given in patent US20260209260A1, “VECTORIZED NHC IRIDIUM(III) COMPLEXES AND USE THEREOF IN PHOTODYNAMIC THERAPY AND/OR DIAGNOSTIC” (CENTRE NATIONAL DE LA RECHERCHE SCIENTIFIQUE, priority 2022, published 2026).
Values joined by “and” are separate entries in the source; they are usually repeats but may differ in a detail not shown here. Equal entries are not always repeated. Where two headings read alike, the source gives them in different places. Marks after values point to notes of the source that are not given here.

What was measured:
[1] = tested on: non-tumor cells (NIH-3T3 and MC3T3); assay: Cell viability assay (MTT), summary over the non-tumor models; format: cell-based, Murine; conditions: for GI50: blue light 458 nm, read-out: GI50 mean over non-tumor models, irradiated
Protocol: (§1) Cells were grown in humidified incubators at 37° C. in 5% CO2. Murine MC3T3 osteoblast and NIH-3T3 fibroblast cells-used as non-tumor cell models-were cultured in a-MEM medium and DMEM medium supplemented with 10% fetal bovine serum (FBS) and 1% Penicillin/Streptomycin (P/S) antibiotics, respectively. Human T24 bladder, MGHU3 bladder, Scaber bladder, A549 lung, MCF7 breast, MiaPaCa2 pancreas cancer cells were cultured in DMEM medium supplemented with 10% FBS and 1% P/S antibiotics. […] Human Hela cervix and HepG2 liver cancer cells were cultured EMEM medium supplemented with 10% FBS and 1% P/S antibiotics.
(§2) MTT reagent (3-(4,5-dimethylthiazol-2-yl)-2,5-diphenyltetrazolium bromide) was used to determine cell death as originally described by Mosmann. Briefly, cells were seeded from 5,000 to 10,000 cells/well in 24-well plates (1 mL) depending on the cell type and allowed to attach overnight. The complexes were prepared in DMSO. The concentration of the complexes was calculated based on the elemental composition of the complexes determined by the elemental analyses. All cell viability experiments were carried out with a fixed concentration of 0.1% (v/v) DMSO. After 72 h of treatment, cells were incubated at 37° C. and 5% CO2 with 25 μL of MTT solution (5 mg/ml; Sigma-Aldrich) in 24-well plates for 3 to 4 h. After solubilization with 500 μL of DMSO, formazan was quantified spectrophotometrically with a microplate reader at 570 nm absorbance (ClarioSTAR, BMG LabTech). […] All the results were calculated from data obtained in at least three independent experiments performed in triplicate.
(§3) Two sets of experiments were conducted in parallel for each complex to be studied:
(§4) 1. The cells were incubated with the different complexes (in the dark) for 72 h.
(§5) 2. The cells were incubated for 8 h with the different complexes (in the dark), then irradiated for 10 min, followed by an incubation in the dark up to 72 h.

[2] = UV/Vis absorption spectra; format: physicochemical; conditions: room temperature, air-saturated CH2Cl2 or CH2Cl2/MeOH (1:1), 50 μM; ε in brackets, sh = shoulder
Protocol: UV/Vis absorption spectra were recorded at RT on solutions contained in quartz cuvettes (optical pathlength 1 cm, Hellma®) with a PerkinElmer® UV/VIS/NIR spectrophotometer Lambda 950 and a PerkinElmer® detector UV/VIS/NIR Accessory 2D Detector Module.

[3] = Emission lifetime measurement; format: physicochemical
In short: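 Time-correlated single-photon counting with 0.5 ns resolution, using D2-lamp or 405 nm pulsed-diode-laser excitation, gave the lifetimes; quoted uncertainty is 5%.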

T24 bladder cancer cells = assay: Cell viability assay (MTT), dark and blue light; format: cell-based, Human; conditions: for Photosensitizing index (PI) T24: dark vs blue light 458 nm
Protocol: as §1, §2, §3, §4, §5

[4] = Lipophilicity: octanol-water partition coefficient, shake-flask method
In short: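 Octanol and water mutually pre-saturated for 24 h; compound ([…] stock in aqueous phase) partitioned against equal volume n-octanol, mixed 15 min, phases separated by centrifugation.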

[5] = tested on: NIH-3T3 fibroblast cells (non-tumor); assay: Cell viability assay (MTT), dark and blue light; format: cell-based, Murine; conditions: for Photosensitizing index (PI): NIH-3T3, dark vs blue light; for Photosensitizing index (PI) NIH-3T3: dark vs blue light 458 nm
In short: (§6)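 MTT read-out at 570 nm after DMSO solubilization of formazan, 3–4 h MTT at 37 °C, 5% CO2. Treatment lasted 72 h, either fully in the dark or with 10 min irradiation after 8 h of dark incubation. Final DMSO fixed at 0.1% (v/v).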

[6] = tested on: MC3T3 osteoblast cells (non-tumor); assay: Cell viability assay (MTT), dark and blue light; format: cell-based, Murine; conditions: for Photosensitizing index (PI): MC3T3, dark vs blue light; for Photosensitizing index (PI) MC3T3: dark vs blue light 458 nm
In short: as §6

[7] = Luminescence emission spectra and quantum yield; format: physicochemical; conditions: for ΦP emission phosphorescence quantum yield: room temperature, reference POPOP in hexane or rhodamine B in ethanol; for λem: CH2Cl2, room temperature, λexc 365 nm or 470 nm
In short: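 Relative luminescence quantum yields (Demas–Crosby) were derived from integrated emission areas of sample versus reference standard, with solvent refractive-index correction, on RT solutions. Emission spectra, fluorescence and phosphorescence, were taken for the complexes in CH2Cl2 at room temperature.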

[8] = n-octanol/water, shake-flask, mean of at least three determinations
[9] = NIH-3T3, blue light, read-out: GI50
[10] = MC3T3, blue light, read-out: GI50
[11] = 8 h in the dark, blue light 458 nm 10 min, then dark up to 72 h, read-out: GI50 T24 Blue
[12] = in the dark, 72 h, read-out: GI50 T24 Dark
[13] = 8 h in the dark, blue light 458 nm 10 min, then dark up to 72 h, read-out: GI50 NIH-3T3 Blue
[14] = in the dark, 72 h, read-out: GI50 NIH-3T3 Dark
[15] = 8 h in the dark, blue light 458 nm 10 min, then dark up to 72 h, read-out: GI50 MC3T3 Blue
[16] = in the dark, 72 h, read-out: GI50 MC3T3 Dark

SMILES | λmax (nm) ε (M^−1 · cm^−1) [2] | τ1 emission lifetime [3] [ns] | GI50 [5, 9] [µM] | Photosensitizing index (PI) [5] | GI50 [6, 10] [µM] | Photosensitizing index (PI) [6] | GI50 ([6]; MC3T3, dark, read-out: GI50) [µM] | ΦP emission phosphorescence quantum yield [7] [%] | GI50 (T24 bladder cancer cells; [11]) [µM] | Photosensitizing index (PI) T24 (T24 bladder cancer cells) | GI50 (T24 bladder cancer cells; [12]) [µM] | Log P [4] | GI50 [5, 13] | Photosensitizing index (PI) NIH-3T3 [5] | GI50 [5, 14] [µM] | GI50 [6, 15] [µM] | Photosensitizing index (PI) MC3T3 [6] | GI50 [6, 16] | GI50 ([5]; NIH-3T3, dark, read-out: GI50) [µM] | λem [7] | other results
F[P-](F)(F)(F)(F)F.O=C(NCCCn1cc[n+]2[c]1[Ir-3]13([c]4cccc5ccc6ccc[n+]1c6c45)([c]1cccc4ccc5ccc[n+]3c5c14)[n+]1ccccc1-2)[c-]1cccc1.[Fe+2].c1cc[cH-]c1 [IV-i] | 318 (25600), 413 (7410) nm (M^−1 · cm^−1) | 205 | 17.8 | 2.3 | 10 | 1.0 | 10 | 0.02 | – | – | – | – | – | – | – | – | – | – | – | – | mean PI value in NIH-3T3 and MC3T3 non-tumoral cells ([1]; dark vs blue light 458 nm): 2.8 fold; SI (vs MC3T3) (T24 bladder cancer cells; T24, blue light): 27.2; SI (vs NIH-3T3) (T24 bladder cancer cells; T24, blue light): 50.4; GI50 (T24 bladder cancer cells; T24, blue light, read-out: GI50): 0.35 µM; SI (vs NIH-3T3) (T24 bladder cancer cells; T24, dark): 23.2; Photosensitizing index (PI) (T24 bladder cancer cells; T24, dark vs blue light): 5.1; Log P [4, 8]: 0.74 ± 0.02
F[P-](F)(F)(F)(F)F.O=C(CCCC[C@@H]1SC[C@@H]2NC(=O)N[C@@H]21)NCCCn1cc[n+]2[c]1[Ir-3]13([c]4ccccc4-c4sc5ccccc5[n+]41)([c]1ccccc1-c1sc4ccccc4[n+]13)[n+]1ccccc1-2 [I-k] | 321 (25835), 372 (sh) (7480), 406 (6130) nm (M^−1 · cm^−1) | 322 | – | – | – | – | – | 7.0 | 0.97 | 19.3 | 18.7 | 0.87 ± 0.03 | 31.1 µM | 2.4 | 75.8 | 19.2 | 1.3 | 25.8 µM | – | – | SI (vs MC3T3) T24 Dark (T24 bladder cancer cells; dark): 1.4; SI (vs NIH-3T3) T24 Dark (T24 bladder cancer cells; dark): 4.1
F[P-](F)(F)(F)(F)F.O=C(O)CC[C@H](NC(=O)N[C@@H](CCCCNC(=O)CCn1cc[n+]2[c]1[Ir-3]13([c]4cccc5ccc6ccc[n+]1c6c45)([c]1cccc4ccc5ccc[n+]3c5c14)[n+]1ccccc1-2)C(=O)O)C(=O)O [III-i] | 317 (19830), 412 (5510) nm (M^−1 · cm^−1) | 227 | 55.8 | >1.8 | 40.6 | 6.2 | 250 | – | – | – | – | 0.60 ± 0.01 | – | – | > 100 | – | – | 250 µM | > 100 | 548 nm | –
COC(=O)c1ccc2[n+](c1)[Ir-3]13([c]4ccccc4-2)([c]2ccccc2-c2ccc(C(=O)OC)c[n+]21)[c]1n(CCCNC(=O)CCCC[C@@H]2SC[C@@H]4NC(=O)N[C@@H]42)cc[n+]1-c1cccc[n+]13.F[P-](F)(F)(F)(F)F [I-e] | 310 (sh) (19500), 365 (sh) (4690), 432 (4155) nm (M^−1 · cm^−1) | 224 | – | – | – | – | – | 3.7 | 5.6 | 17.2 | 96 | 0.25 ± 0.04 | 135 µM | >1.9 | > 250 | 41.1 | 1.4 | 58.8 µM and 56.8 µM | – | 511-550 nm | –
F[P-](F)(F)(F)(F)F.O=C(O)CC[C@H](NC(=O)N[C@@H](CCCCNC(=O)CCn1cc[n+]2[c]1[Ir-3]13([c]4ccccc4-c4sc5ccccc5[n+]41)([c]1ccccc1-c1sc4ccccc4[n+]13)[n+]1ccccc1-2)C(=O)O)C(=O)O [III-k] | 321 (39070), 370 (sh) (12560), 406 (10170) nm (M^−1 · cm^−1) | 649 | 30 | >3.3 | 33.8 | 2.8 | 95.1 | 6.1 | – | – | – | −0.14 ± 0.01 | 30 µM | – | > 100 | 33.8 | – | 95.1 µM | > 100 | – | GI50 [1]: 22.8 µM
F[P-](F)(F)(F)(F)F.O=C(O)CC[C@H](NC(=O)N[C@@H](CCCCNC(=O)CCn1cc[n+]2[c]1[Ir-3]13([c]4ccccc4-c4c5ccccc5cc[n+]41)([c]1ccccc1-c1c4ccccc4cc[n+]13)[n+]1ccccc1-2)C(=O)O)C(=O)O [III-h] | 336 (sh) (23695), 352 (sh) (22270), 378 (sh) (15520), 435 (9310) nm (M^−1 · cm^−1) | 215 | 19 | >5.3 | 8.3 | 6.3 | 52.4 | 3.0 | – | – | – | – | 19 µM | – | > 100 | 8.3 | – | 52.4 µM | > 100 | 628 nm | GI50 [1]: 22.8 µM; Log P [4, 8]: 0.88 ± 0.02
F[P-](F)(F)(F)(F)F.O=C(O)CC[C@H](NC(=O)N[C@@H](CCCCNC(=O)CCn1cc[n+]2[c]1[Ir-3]13([c]4c(sc5ccccc45)-c4cccc[n+]41)([c]1c(sc4ccccc14)-c1cccc[n+]13)[n+]1ccccc1-2)C(=O)O)C(=O)O [III-j] | 324 (26900), 343 (sh)^b (24560), 428 (10800) nm (M^−1 · cm^−1) | 197 | 10.8 | >9.3 | 12.5 | >20 | > 250 | 3.0 | – | – | – | −0.38 ± 0.03 | 10.8 µM | – | > 100 | 12.5 | – | – | > 100 | – | –
F[P-](F)(F)(F)(F)F.O=C(CCCC[C@@H]1SC[C@@H]2NC(=O)N[C@@H]21)NCCCn1cc[n+]2[c]1[Ir-3]13([c]4ccccc4-c4c5ccccc5cc[n+]41)([c]1ccccc1-c1c4ccccc4cc[n+]13)[n+]1ccccc1-2 [I-h] | 337 (sh) (12520), 352 (sh) (11890), 380 (sh) (8100), 436 (4855) nm (M^−1 · cm^−1) | 202 | – | – | – | – | – | 3.0 | 0.58 | 24.0 | 13.9 | – | 10.4 µM | 9.7 | 101 | 5 | 8.4 | 42.2 µM | – | – | Log P [4, 8]: 0.87 ± 0.02
F[P-](F)(F)(F)(F)F.O=C(CCCC[C@@H]1SC[C@@H]2NC(=O)N[C@@H]21)NCCCn1cc[n+]2[c]1[Ir-3]13([c]4ccccc4-c4ccc5ccccc5[n+]41)([c]1ccccc1-c1ccc4ccccc4[n+]13)[n+]1ccccc1-2 [I-g] | 336 (19000), 437 (4600) nm (M^−1 · cm^−1) | 203 | – | – | – | – | – | <0.1 | 1.1 | 16.9 | 18.6 | 1.26 ± 0.04 | 81.7 µM and 61.7 µM | 1.8 | 110 | 31.4 | 1.8 | 85.2 µM and 55.2 µM | – | 593-652 nm | SI (vs NIH-3T3) T24 Blue (T24 bladder cancer cells; blue light 458 nm): 58.1
